Key:
growth hormone release = experiment: Growth Hormone--in vitro: growth hormone release inhibition in cultured rat pituitary cells; type: cell-based; details: multiples or fractions of the effect of somatostatin (=1), 4 hours incubation
Protocol: Rat pituitaries were isolated according to the procedures of Vale and Grant "In vitro Pituitary Hormone Secretion Assay for Hypophysioprivic Substances" in Methods in Enzymology. Vol.XXXVII,eds. O'Malley, B. W. and Hardman, J. G. (Academic Press, Inc., New York) pp. 5-93 (1975).
After 4 days in culture, the cells were washed and incubated for 4 hours in Dulbecco modified Eagle's medium in the presence or absence of graded doses of each analog or somatostatin. The medium was then collected for subsequent growth hormone determination by a double antibody radioimmunoassay for rat growth hormone.

[1] = system: pentagastrin evoked gastric secretion; experiment: Inhibition of pentagastrin evoked gastric secretion in the chronic fistula dog; type: in vivo; details: Dose 0.8 μg/ml./min., infusion 0-60 min, relative to placebo trial
Protocol: Compounds were tested for their ability to inhibit pentagastrin evoked gastric secretion in the chronic fistula dog. Female beagle dogs with a chronic gastric fistula were given pentagastrin (2.5 μg./kg./hour, i.v. from -60 to 120 min.) and gastric outputs were collected via the fistula cannula. Samples were analyzed at 30 minute intervals for volume (ml.) and titratable acid (mEq/L) (Titration to pH 7 with 0.01 N NaOH); total acid output (mEq) was calculated as the production of output volume and acid concentration. Test compounds were infused at a constant rate from 0 to 60 minutes. Data have been expressed as percent change of total acid output relative to a placebo trial in the same animals.

insulin = experiment: Insulin inhibition in vivo: portal vein insulin in anesthetized rats; set-up: species or system rat; details: multiples or fractions of the effect of somatostatin (=1), via external jugular vein, portal vein blood after 5 minutes
Protocol: Analogs of somatostatin were compared to somatostatin in their ability to decrease the levels of portal vein glucagon and insulin in anesthetized rats. Male Sprague-Dawley rats (Charles River CD) weighing 160-200 g were anethetized with urethane (150 mg/100 g of body weight; Aldrich). Saline or peptides were administered via the external jugular vein. After 5 minutes, the portal vein was exposed, and blood was collected via syringe containing 3 mg of EDTA and placed in chilled tubes containing 100 μl of Trasylol (FBA Pharmaceuticals) for subsequent hormone analysis. Plasma levels of glucagon were determined by the method of Faloona and Unger, Methods of Hormone Radioimmunoassay, Jaffe and Behrman (Eds), Academic Press, New York, Vol. II, pp. 257-527 (1976), utilizing glucagon antisera 30K obtained from R. Unger (Dallas, Tx). Plasma levels of insulin were determined by a modification of the procedure of Herbert et al., J. Clin. Endocrinol. Metab., 25, 1375-1384 (1965).

With C[C@H](N)C(=O)NCC(=O)N[C@H]1CSSC[C@@H](C(=O)O)NC(=O)[C@H](CO)NC(=O)[C@H]([C@@H](C)O)NC(=O)[C@H](Cc2ccccc2)NC(=O)[C@H]([C@@H](C)O)NC(=O)[C@H](CCCCN)NC(=O)[C@H](Cc2c[nH]c3ccccc23)NC(=O)[C@H](Cc2ccccc2)NC(=O)[C@H](Cc2ccccc2)NC(=O)[C@H](CC(N)=O)NC(=O)[C@H](CCCCN)NC1=O [Somatostatin] as the molecule, how does the “Growth Hormone Release Inhibition In Vitro” value (growth hormone release) read?
The value was 1.

What about the “Gastric Secretion % Inhibition Acid Concentration 0-30” value ([1]; interval 0-30 min) of the same molecule?
The value was 16%.

What about the “Gastric Secretion % Inhibition Vol. 0-30” value ([1]; interval 0-30 min) of the same molecule?
The value was 85%.

What about the “Gastric Secretion % Inhibition Acid Concentration 30-60” value ([1]; interval 30-60 min) of the same molecule?
Its value is 77%.

And the “Gastric Secretion % Inhibition Vol. 30-60” value ([1]; interval 30-60 min)?
The value was 97%.

What about the “Gastric Secretion % Inhibition Acid Concentration 60-90” value ([1]; interval 60-90 min) of the same molecule?
Its value is 61%.

And the “Gastric Secretion % Inhibition Vol. 60-90” value ([1]; interval 60-90 min)?
The value was 81%.

And the “Gastric Secretion % Inhibition Acid Concentration 90-120” value ([1]; interval 90-120 min)?
Its value is 14%.

What about the “Gastric Secretion % Inhibition Vol. 90-120” value ([1]; interval 90-120 min) of the same molecule?
The value was 37%.

And the “Insulin Inhibition In Vivo” value (insulin)?
Its value is 1.

Source: US4427661A, “Fluorinated cyclic hexapeptide somatostatin analogs” (Merck & Co., Inc., priority 1982, dated 1984)
